From the NIST ThermoML archive (doi:10.1016/j.jct.2014.01.031)
Numbers after ± are expanded uncertainties. Blank lines part the entries; values can stand above or below the molecule they belong to.

What was measured:
[1] = 298.15 K, 101 kPa, Liquid; for electrical conductivity: Alternating current cell with electrodes; for viscosity: Falling or rolling sphere viscometry; for self diffusion coefficient: PFG NMR Spectroscopy
[2] = xn = mol fraction of the nth substance listed; settings: 298.15 K, 101 kPa, Liquid; for electrical conductivity: Alternating current cell with electrodes; for viscosity: Falling or rolling sphere viscometry

- viscosity [1]: 0.89 ± 0.04 mPa·s
- self diffusion coefficient [1]: 2.3e-09 m2/s
Compound: O [water]

- viscosity ([2]; x1 = 1): 0.89 ± 0.04 mPa·s
Compound: O [water] + CCCCn1cc[n+](C)c1.COS(=O)(=O)[O-]

- viscosity ([2]; x1 = 1): 0.89 ± 0.04 mPa·s
Compound: O [water] + CCn1cc[n+](C)c1.COS(=O)(=O)[O-]

Continued, molecule first:

Compound: CCCCn1cc[n+](C)c1.COS(=O)(=O)[O-] [1-butyl-3-methylimidazolium methyl sulfate]
- electrical conductivity [1]: 0.126 ± 0.002 S/m
- viscosity [1]: 223 ± 12 mPa·s
- self diffusion coefficient [1]: 1.3e-11 m2/s

Compound: CCCCn1cc[n+](C)c1.COS(=O)(=O)[O-] [1-butyl-3-methylimidazolium methyl sulfate] + O
- electrical conductivity ([2]; x2 = 0): 0.126 ± 0.002 S/m
- electrical conductivity ([2]; x2 = 0.1999): 0.247 ± 0.003 S/m
- electrical conductivity ([2]; x2 = 0.4037): 0.4 ± 0.005 S/m
- electrical conductivity ([2]; x2 = 0.617): 0.799 ± 0.01 S/m
- electrical conductivity ([2]; x2 = 0.7937): 1.77 ± 0.021 S/m
- electrical conductivity ([2]; x2 = 0.9437): 3.42 ± 0.041 S/m
- electrical conductivity ([2]; x2 = 0.992): 1.92 ± 0.044 S/m
- electrical conductivity ([2]; x2 = 0.9977): 0.849 ± 0.039 S/m
- viscosity ([2]; x2 = 0): 223 ± 12 mPa·s
- viscosity ([2]; x2 = 0.1999): 112 ± 4 mPa·s
- viscosity ([2]; x2 = 0.4037): 63.1 ± 2.1 mPa·s
- viscosity ([2]; x2 = 0.617): 27.6 ± 1 mPa·s
- viscosity ([2]; x2 = 0.7937): 11.5 ± 0.4 mPa·s

Compound: CCn1cc[n+](C)c1.COS(=O)(=O)[O-] [1-ethyl-3-methylimidazolium methylsulfate]
- electrical conductivity [1]: 0.547 ± 0.007 S/m
- viscosity [1]: 81.4 ± 2.7 mPa·s
- self diffusion coefficient [1]: 4.6e-11 m2/s

Compound: CCn1cc[n+](C)c1.COS(=O)(=O)[O-] [1-ethyl-3-methylimidazolium methylsulfate] + O
- electrical conductivity ([2]; x2 = 0): 0.547 ± 0.007 S/m
- electrical conductivity ([2]; x2 = 0.2542): 0.909 ± 0.011 S/m
- electrical conductivity ([2]; x2 = 0.4994): 1.6 ± 0.019 S/m
- electrical conductivity ([2]; x2 = 0.7519): 3.16 ± 0.038 S/m
- electrical conductivity ([2]; x2 = 0.8053): 3.99 ± 0.048 S/m
- electrical conductivity ([2]; x2 = 0.9249): 6.23 ± 0.075 S/m
- electrical conductivity ([2]; x2 = 0.9737): 4.58 ± 0.055 S/m
- viscosity ([2]; x2 = 0): 81.4 ± 2.7 mPa·s
- viscosity ([2]; x2 = 0.2542): 39.7 ± 1.3 mPa·s
- viscosity ([2]; x2 = 0.4994): 20.2 ± 0.7 mPa·s
- viscosity ([2]; x2 = 0.7519): 8.59 ± 0.31 mPa·s
- viscosity ([2]; x2 = 0.8053): 6.62 ± 0.25 mPa·s
- viscosity ([2]; x2 = 0.9249): 2.59 ± 0.1 mPa·s
- viscosity ([2]; x2 = 0.9737): 1.43 ± 0.06 mPa·s
